Results reported in ChEMBL document CHEMBL3046517, “Synthesis and antimicrobial study of fluoroquinolone-based 4-thiazolidinones” (2010).
Converted amounts (≈) assume the structure as drawn.

Key:
Type in all cases: functional
Escherichia coli = experiment: Antibacterial activity against Escherichia coli by broth dilution method
Staphylococcus aureus = experiment: Antibacterial activity against Staphylococcus aureus by broth dilution method
Streptococcus pyogenes = experiment: Antibacterial activity against Streptococcus pyogenes by broth dilution method
Candida albicans = experiment: Antifungal activity against Candida albicans by broth dilution method
Aspergillus clavatus = experiment: Antifungal activity against Aspergillus clavatus by broth dilution method
Aspergillus niger = experiment: Antifungal activity against Aspergillus niger by broth dilution method
Pseudomonas aeruginosa = experiment: Antibacterial activity against Pseudomonas aeruginosa by broth dilution method

Row | Compound | MIC (Escherichia coli) [µg/mL] | MIC (Staphylococcus aureus) [µg/mL] | MIC (Streptococcus pyogenes) [µg/mL] | MIC (Candida albicans) [µg/mL] | MIC (Aspergillus clavatus) [µg/mL] | MIC (Aspergillus niger) [µg/mL] | MIC (Pseudomonas aeruginosa) [µg/mL]
1 | O=C(O)c1cn(C2CC2)c2cc(N3CCNCC3)c(F)cc2c1=O [CIPROFLOXACIN] | 25 (≈ 75.4 µM) | 50 (≈ 151 µM) | 50 (≈ 151 µM) |  |  |  | 
2 | O=C(N/N=C\c1cccc([N+](=O)[O-])c1)c1cn(C2CC2)c2cc(Cl)c(F)cc2c1=O | 200 (≈ 466 µM) | 1000 (≈ 2330 µM) | 1000 (≈ 2330 µM) | 1000 (≈ 2330 µM) | > 1000 | 1000 (≈ 2330 µM) | 200 (≈ 466 µM)
3 | O=C(N/N=C\c1ccccc1O)c1cn(C2CC2)c2cc(Cl)c(F)cc2c1=O | 500 (≈ 1250 µM) | 500 (≈ 1250 µM) | 1000 (≈ 2500 µM) | 500 (≈ 1250 µM) | 500 (≈ 1250 µM) | 500 (≈ 1250 µM) | 500 (≈ 1250 µM)
4 | GENTAMICIN | 0.05 | 0.25 | 0.5 |  |  |  | 1
5 | COc1ccc(N2CCN(c3cc4c(cc3F)c(=O)c(C(=O)N/N=C\c3ccccc3[N+](=O)[O-])cn4C3CC3)CC2)cc1 | 50 (≈ 85.5 µM) | 150 (≈ 257 µM) | 150 (≈ 257 µM) | 1000 (≈ 1710 µM) | 1000 (≈ 1710 µM) | 1000 (≈ 1710 µM) | 100 (≈ 171 µM)
6 | COc1ccc(N2CCN(c3cc4c(cc3F)c(=O)c(C(=O)N/N=C\c3cccc([N+](=O)[O-])c3)cn4C3CC3)CC2)cc1 | 1000 (≈ 1710 µM) | 1000 (≈ 1710 µM) | 500 (≈ 855 µM) | 1000 (≈ 1710 µM) | 1000 (≈ 1710 µM) | 1000 (≈ 1710 µM) | 500 (≈ 855 µM)
7 | COc1ccc(N2CCN(c3cc4c(cc3F)c(=O)c(C(=O)NN3C(=O)CSC3c3cccc([N+](=O)[O-])c3)cn4C3CC3)CC2)cc1 (stereo unspecified) | 500 (≈ 759 µM) | 500 (≈ 759 µM) | 1000 (≈ 1520 µM) | 1000 (≈ 1520 µM) | > 1000 | 1000 (≈ 1520 µM) | 200 (≈ 304 µM)
8 | NNC(=O)c1cn(C2CC2)c2cc(Cl)c(F)cc2c1=O | 500 (≈ 1690 µM) | 500 (≈ 1690 µM) | 500 (≈ 1690 µM) | 200 (≈ 676 µM) | 500 (≈ 1690 µM) | 500 (≈ 1690 µM) | 500 (≈ 1690 µM)
9 | COc1ccc(N2CCN(c3cc4c(cc3F)c(=O)c(C(=O)NN3C(=O)CSC3c3ccc(F)cc3)cn4C3CC3)CC2)cc1 (stereo unspecified) | 1000 (≈ 1580 µM) | 1000 (≈ 1580 µM) | 1000 (≈ 1580 µM) | 1000 (≈ 1580 µM) | 1000 (≈ 1580 µM) | 1000 (≈ 1580 µM) | 500 (≈ 792 µM)
10 | COc1cc(/C=N\NC(=O)c2cn(C3CC3)c3cc(Cl)c(F)cc3c2=O)ccc1O | 100 (≈ 233 µM) | 200 (≈ 465 µM) | 500 (≈ 1160 µM) | 100 (≈ 233 µM) | 1000 (≈ 2330 µM) | 500 (≈ 1160 µM) | 200 (≈ 465 µM)
11 | CCn1cc(C(=O)O)c(=O)c2cc(F)c(N3CCNCC3)cc21 [NORFLOXACIN] | 10 (≈ 31.3 µM) | 10 (≈ 31.3 µM) | 10 (≈ 31.3 µM) |  |  |  | 10 (≈ 31.3 µM)
12 | O=C(N/N=C\c1ccccc1[N+](=O)[O-])c1cn(C2CC2)c2cc(Cl)c(F)cc2c1=O | 500 (≈ 1170 µM) | 100 (≈ 233 µM) | 200 (≈ 466 µM) | 500 (≈ 1170 µM) | > 1000 | 1000 (≈ 2330 µM) | 200 (≈ 466 µM)
13 | COc1ccc(N2CCN(c3cc4c(cc3F)c(=O)c(C(=O)N/N=C\c3ccccc3O)cn4C3CC3)CC2)cc1 | 500 (≈ 900 µM) | 500 (≈ 900 µM) | 500 (≈ 900 µM) | 500 (≈ 900 µM) | > 1000 | 500 (≈ 900 µM) | 500 (≈ 900 µM)
14 | O=C(N/N=C\c1ccc(F)cc1)c1cn(C2CC2)c2cc(Cl)c(F)cc2c1=O | 500 (≈ 1240 µM) | 500 (≈ 1240 µM) | 500 (≈ 1240 µM) | 1000 (≈ 2490 µM) | 1000 (≈ 2490 µM) | 1000 (≈ 2490 µM) | 500 (≈ 1240 µM)
15 | COc1ccc(C2SCC(=O)N2NC(=O)c2cn(C3CC3)c3cc(N4CCN(c5ccc(OC)cc5)CC4)c(F)cc3c2=O)cc1 (stereo unspecified) | 500 (≈ 777 µM) | 1000 (≈ 1550 µM) | 1000 (≈ 1550 µM) | 500 (≈ 777 µM) | > 1000 | 500 (≈ 777 µM) | 500 (≈ 777 µM)
16 | O=C(N/N=C\c1ccc(Cl)cc1)c1cn(C2CC2)c2cc(Cl)c(F)cc2c1=O | 1000 (≈ 2390 µM) | 1000 (≈ 2390 µM) | 1000 (≈ 2390 µM) | 1000 (≈ 2390 µM) | 500 (≈ 1200 µM) | 500 (≈ 1200 µM) | 1000 (≈ 2390 µM)
17 | COc1ccc(N2CCN(c3cc4c(cc3F)c(=O)c(C(=O)N/N=C\c3ccccc3)cn4C3CC3)CC2)cc1 | 500 (≈ 927 µM) | 1000 (≈ 1850 µM) | 500 (≈ 927 µM) | 500 (≈ 927 µM) | 500 (≈ 927 µM) | 500 (≈ 927 µM) | 500 (≈ 927 µM)
18 | NYSTATIN |  |  |  | 100 | 100 | 100 | 
19 | COc1ccc(N2CCN(c3cc4c(cc3F)c(=O)c(C(=O)NN3C(=O)CSC3c3ccccc3Cl)cn4C3CC3)CC2)cc1 (stereo unspecified) | 1000 (≈ 1540 µM) | 500 (≈ 771 µM) | 100 (≈ 154 µM) | 1000 (≈ 1540 µM) | 1000 (≈ 1540 µM) | > 1000 | 500 (≈ 771 µM)
20 | COc1ccc(N2CCN(c3cc4c(cc3F)c(=O)c(C(=O)N/N=C\c3ccc(O)cc3)cn4C3CC3)CC2)cc1 | 500 (≈ 900 µM) | 500 (≈ 900 µM) | 1000 (≈ 1800 µM) | 1000 (≈ 1800 µM) | 1000 (≈ 1800 µM) | 1000 (≈ 1800 µM) | 200 (≈ 360 µM)
